Data from US9597375B2, “Coagulation and fibrinolytic cascades modulator” (The Board of Trustees of the University of Illinios, priority 2005, dated 2017).
Entries after “also recorded” stand apart in the source; their conditions may differ. Where two headings read alike, the source gives them in different places.

Tests used:
[1] = tested on: fibrinolysis in pooled normal plasma; experiment: Plasma clot lysis model, clotting initiated by calcium ions and thrombin in presence of plasminogen activator; assay type: biochemical, human
Method: In order to study the effect of polyP on fibrinolysis independent of its effect on clotting times, the model was modified such that clotting was initiated by a mixture of calcium ions and thrombin in the presence of uPA (pooled normal plasma supplemented with 1.4 nM uPA). The amount of thrombin was chosen to yield rapid clotting times, permitting analyses to focus on the lytic phase only. […] In the absence of polyP, the clots subsequently lysed, with a 50% lysis time of 61 min in this experiment. […] The magnitude of the effect of polyP75 on the inhibition of fibrinolysis was dependent on the uPA concentration. At high uPA concentrations the effect of polyP75 could be masked, presumably reflecting a balance situation between uPA and polyP within the clot (data not shown).
Microplate-based assays of plasma clotting and fibrinolysis—Some of the clotting assays were conducted in flat-bottom, polystyrene, 96-well plates (Corning). Turbidity, a measure of clot formation, was quantified at 37° C. by measuring the absorbance of light at 405 nm in a VERSAmax microplate reader (Molecular Devices, Sunnyvale, Calif.). Reactions (100 μl final volume) typically contained the following final concentrations: 30% (v/v) human plasma; 8 mM Tris-HCl buffer, pH 7.4; 0.008% (v/v) Tween-20; 10.6 mM calcium chloride; and, variably, 10 nM thrombin. In some experiments, clotting reactions were initiated by calcium ions alone. In this case, a 1.25× reaction mixture of the above-described components (except calcium chloride) was prepared in a final volume of 80 μl per well. Clotting was then initiated by adding 20 μl of 53 mM calcium chloride and absorbance at 405 nm was monitored. In other experiments, clotting was initiated by a mixture of calcium ions and thrombin. In these cases, to the 80 μl reaction mixtures described above were added 10 μl of 106 mM calcium chloride followed immediately by 10 μl of 100 nM thrombin. […]

[2] = biological target: T1, TFPI (Homo sapiens, UniProt P10646); assay type: biochemical
T1 construct: Recombinant, full-length human TFPI was a kind gift of Dr. George Broze; gift of Dr. George Broze, Washington University St. Louis
T1 sequence (P10646 29-304): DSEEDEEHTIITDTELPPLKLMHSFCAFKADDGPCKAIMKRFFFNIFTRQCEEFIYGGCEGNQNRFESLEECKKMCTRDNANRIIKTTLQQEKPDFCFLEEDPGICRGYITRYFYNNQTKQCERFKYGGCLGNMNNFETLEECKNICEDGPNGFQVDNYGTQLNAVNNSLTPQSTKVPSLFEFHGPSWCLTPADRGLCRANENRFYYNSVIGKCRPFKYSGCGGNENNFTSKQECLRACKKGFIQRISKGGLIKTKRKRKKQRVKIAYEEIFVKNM
Method: The hypothesis that polyP might block the anticoagulant effect of TFPI was tested. This was examined in a dilute PT assay in which varying concentrations of recombinant TFPI were added to plasma samples. Plasma normally contains relatively low levels of free TFPI, so adding exogenous TFPI can dramatically lengthen PT clotting times.
Coagulometer-based plasma clotting assays—Recombinant human tissue factor was reconstituted into phospholipid vesicles as previously described [18], using a mixture of 20% phosphatidylserine and 80% phosphatidylcholine at a phospholipid:tissue factor molar ratio of 8700:1. Blank phospholipid vesicles (PCPS vesicles) composed of 20% phosphatidylserine and 80% phosphatidylcholine (and no tissue factor) were prepared as described [18]. The thromboplastin reagent for the PT assay was prepared by diluting relipidated tissue factor to a final concentration of 200 ng/ml tissue factor in TBSA buffer (50 mM Tris-HCl pH 7.5, 100 mM NaCl, 0.02% sodium azide, 0.1% (w/v) bovine serum albumin). The thromboplastin reagent for the dilute PT assay was prepared in the same manner as the reagent for the PT assay, except that the relipidated tissue factor was typically diluted to a final concentration of 1 ng/ml tissue factor in TBSA buffer containing 50 μM PCPS vesicles.
The PT, XaT, aPTT and PTT clotting assays were typically performed in a STart coagulometer (Diagnostica Stago) by pre-incubating 50 μl of human plasma with 50 μl of the indicated clotting reagent at 37° C. for the following times: PT and XaT assays, 120 sec; aPTT and PTT assays, 180 sec. Clotting was then initiated by adding 50 μl of 25 mM calcium chloride solution that had been pre-warmed to 37° C. The time to clot formation was then measured relative to the point of addition of calcium chloride. […] When the effect of TFPI on clotting was tested, TFPI was added to plasma at the indicated concentration immediately before use. When the effect of polyP on clotting was tested, polyP was added to the clotting reagent at the indicated concentration. […]

[3] = tested on: pooled normal plasma; experiment: Dilute PT assay; assay type: biochemical, human
Method: The ability of polyP75 to influence the clotting time of a variety of clotting assays was systematically evaluated, employing commonly used plasma clotting assays including the prothrombin time (PT) assay, the partial thromboplastin time (PTT) assay, the activated partial thromboplastin time (aPTT) assay, a factor Xa clotting assay (XaT), and the thrombin time (TT) assay (FIG. 9). The PT assay, which is conducted by adding a thromboplastin reagent (a source of tissue factor activity and calcium ions) to plasma, drives coagulation through the extrinsic, or tissue factor pathway. The PTT and aPTT assays rely on the contact, or intrinsic, pathway of blood clotting. The XaT assay relies on the presence of factor V, prothrombin and fibrinogen in plasma, while the TT assay relies only on the presence of fibrinogen. Therefore, these assays assess different stages of the blood clotting cascades. All were performed in a coagulometer at 37° C.
Coagulometer-based plasma clotting assays—Recombinant human tissue factor was reconstituted into phospholipid vesicles as previously described, using a mixture of 20% phosphatidylserine and 80% phosphatidylcholine at a phospholipid:tissue factor molar ratio of 8700:1. Blank phospholipid vesicles (PCPS vesicles) composed of 20% phosphatidylserine and 80% phosphatidylcholine (and no tissue factor) were prepared as described. […]
The PT, XaT, aPTT and PTT clotting assays were typically performed in a STart coagulometer (Diagnostica Stago) by pre-incubating 50 μl of human plasma with 50 μl of the indicated clotting reagent at 37° C. for the following times: PT and XaT assays, 120 sec; aPTT and PTT assays, 180 sec. […] The time to clot formation was then measured relative to the point of addition of calcium chloride. The TT clotting assay was performed in the same coagulometer as follows: 50 μl human plasma was pre-warmed to 37° C. for 60 sec, after which 50 μl of pre-warmed TT reagent was added and the time to clot formation was measured. […]

[4] = polyP25-75 at 75 μM phosphate equivalents (FIG. 5), short phosphates data not shown

O=P(O)(O)OP(=O)(O)O [PPi, pyrophosphate]
ability to inhibit fibrinolysis, dependence on chain length [1, 4]: no discernable effect on fibrinolysis | blocking of TFPI anticoagulant effect, dependence on chain length [2]: did not block TFPI anticoagulant function at all

O=P(O)(O)O [Pi, sodium phosphate]
ability to inhibit fibrinolysis, dependence on chain length [1]: no discernable effect on fibrinolysis | blocking of TFPI anticoagulant effect, dependence on chain length [2]: did not block TFPI anticoagulant function at all

TFPI: Recombinant, full-length human tissue factor pathway inhibitor
dilute PT clotting time ([3]; 100 ng/ml TFPI added to pooled normal plasma, no polyP (66 sec without TFPI)): over 160 sec | dilute PT mean clotting time ([3]; 200 ng/ml TFPI added, no polyP (59 sec without TFPI)): 294 s | effect of added TFPI on dilute PT clotting time (in words) ([3]; TFPI added to pooled normal plasma, no polyP): greatly prolonged the dilute PT clotting time; also recorded: substantially prolonged

sodium tripolyphosphate [polyP3]
ability to inhibit fibrinolysis, dependence on chain length [1, 4]: no discernable effect on fibrinolysis | blocking of TFPI anticoagulant effect, dependence on chain length ([2]; 200 ng/ml TFPI, 75 μM phosphate equivalents in dilute thromboplastin reagent (FIG. 12)): did not block TFPI anticoagulant function at all
